# Results: PubChem BioAssay (NCI)
#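 Five compound concentrations were applied to cells in 96-well plates for 48 hours; endpoints were derived by simple linear interpolation of the resulting dose-response curve. Definition used: TGI = concentration required for complete inhibition of growth.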
# Tests used:
# Assay in all cases: DTP human tumour cell line panel, 48 h
# [1] = tested on: 786-0 renal
# [2] = tested on: A498 renal
# [3] = tested on: A549 NSCLC
# [4] = tested on: ACHN renal
# [5] = tested on: BT-549 breast
# [6] = tested on: CAKI-1 renal
# [7] = tested on: CCRF-CEM leukemia
# [8] = tested on: COLO 205 colon
# [9] = tested on: DLD-1 colon
# [10] = tested on: DMS 114 small cell lung
# [11] = tested on: DMS 273 small cell lung
# [12] = tested on: DU-145 prostate
# [13] = tested on: EKVX NSCLC
# [14] = tested on: HCC-2998 colon
# [15] = tested on: HCT-116 colon
# [16] = tested on: HCT-15 colon
# [17] = tested on: HL-60(TB) leukemia
# [18] = tested on: HOP-18 NSCLC
# [19] = tested on: HOP-62 NSCLC
# [20] = tested on: HOP-92 NSCLC
# [21] = tested on: HS 578T breast
# [22] = tested on: HT29 colon
# [23] = tested on: IGROV1 ovarian
# [24] = tested on: K-562 leukemia
# [25] = tested on: KM12 colon
# [26] = tested on: KM20L2 colon
# [27] = tested on: LOX IMVI melanoma
# [28] = tested on: LXFL 529 NSCLC
# [29] = tested on: M14 melanoma
# [30] = tested on: M19-MEL melanoma
# [31] = tested on: MALME-3M melanoma
# [32] = tested on: MCF7 breast
# [33] = tested on: MDA-MB-231 breast
# [34] = tested on: MDA-MB-435
# [35] = tested on: MDA-N
# [36] = tested on: MOLT-4 leukemia
# [37] = tested on: NCI-H226 lung
# [38] = tested on: NCI-H23 lung
# [39] = tested on: NCI-H460 lung
# [40] = tested on: NCI-H522 lung
# [41] = tested on: NCI/ADR-RES ovarian
# [42] = tested on: OVCAR-3 ovarian
# [43] = tested on: OVCAR-4 ovarian
# [44] = tested on: OVCAR-5 ovarian
# [45] = tested on: OVCAR-8 ovarian
# [46] = tested on: PC-3 prostate
# [47] = tested on: RPMI-8226 leukemia
# [48] = tested on: RXF 393 renal
# [49] = tested on: SF-268 CNS
# [50] = tested on: SF-295 CNS
# [51] = tested on: SF-539 CNS
# [52] = tested on: SK-MEL-2 melanoma
# [53] = tested on: SK-MEL-28 melanoma
# [54] = tested on: SK-MEL-5 melanoma
# [55] = tested on: SK-OV-3 ovarian
# [56] = tested on: SN12C renal
# [57] = tested on: SNB-19 CNS
# [58] = tested on: SNB-75 CNS
# [59] = tested on: SNB-78 CNS
# [60] = tested on: SR leukemia
# [61] = tested on: SW-620 colon
# [62] = tested on: T-47D breast
# [63] = tested on: TK-10 renal
# [64] = tested on: U251 CNS
# [65] = tested on: UACC-257 melanoma
# [66] = tested on: UACC-62 melanoma
# [67] = tested on: UO-31 renal
# [68] = tested on: XF 498 CNS
# [69] = tested on: RXF-631 renal
structure (smiles),measurement,setting,value
CCCCCCCCCCCC(=O)OC[C@H](C[As](=O)(O)O)OC(=O)CCCCCCCCCCC,TGI,[1],26 µM
same,TGI,[2],17.1 µM
same,TGI,[3],20.5 µM
same,TGI,[4],9.07 µM
same,TGI,[5],11.3 µM
same,TGI,[6],20.8 µM
same,TGI,[7],> 100 µM
same,TGI,[8],38.8 µM
same,TGI,[9],26.7 µM
same,TGI,[10],4.77 µM
same,TGI,[11],15 µM
same,TGI,[12],44.2 µM
same,TGI,[13],25.6 µM
same,TGI,[14],22.4 µM
same,TGI,[15],21.7 µM
same,TGI,[16],23.9 µM
same,TGI,[17],> 28.6 µM
same,TGI,[18],20.3 µM
same,TGI,[19],31.7 µM
same,TGI,[20],3.85 µM
same,TGI,[21],8.69 µM
same,TGI,[22],21.7 µM
same,TGI,[23],4.07 µM
same,TGI,[24],> 52.5 µM
same,TGI,[25],22 µM
same,TGI,[26],18.8 µM
same,TGI,[27],23.6 µM
same,TGI,[28],14 µM
same,TGI,[29],10.5 µM
same,TGI,[30],22 µM
same,TGI,[31],7.14 µM
same,TGI,[32],21.9 µM
same,TGI,[33],16.3 µM
same,TGI,[34],9.5 µM
same,TGI,[35],14.8 µM
same,TGI,[36],> 81.4 µM
same,TGI,[37],38.8 µM
same,TGI,[38],21.2 µM
same,TGI,[39],16.9 µM
same,TGI,[40],5.09 µM
same,TGI,[41],29.3 µM
same,TGI,[42],19.3 µM
same,TGI,[43],37.7 µM
same,TGI,[44],32.7 µM
same,TGI,[45],27.8 µM
same,TGI,[46],10.5 µM
same,TGI,[47],> 76.8 µM
same,TGI,[48],5.68 µM
same,TGI,[49],> 42.5 µM
same,TGI,[50],27 µM
same,TGI,[51],38.6 µM
same,TGI,[52],6.48 µM
same,TGI,[53],11.9 µM
same,TGI,[54],4.54 µM
same,TGI,[55],28.9 µM
same,TGI,[56],16.4 µM
same,TGI,[57],17.7 µM
same,TGI,[58],24.7 µM
same,TGI,[59],9.45 µM
same,TGI,[60],> 100 µM
same,TGI,[61],27.4 µM
same,TGI,[62],47.2 µM
same,TGI,[63],15.1 µM
same,TGI,[64],5.15 µM
same,TGI,[65],24.9 µM
same,TGI,[66],6.98 µM
same,TGI,[67],29.5 µM
same,TGI,[68],24 µM
CCOC(=O)C(=O)C=P(c1ccccc1)(c1ccccc1)c1ccccc1,TGI,[1],> 100 µM
same,TGI,[2],> 100 µM
same,TGI,[3],> 100 µM
same,TGI,[4],> 100 µM
same,TGI,[6],> 100 µM
same,TGI,[7],> 100 µM
same,TGI,[8],> 100 µM
same,TGI,[9],> 100 µM
same,TGI,[10],> 100 µM
same,TGI,[11],> 100 µM
same,TGI,[13],> 100 µM
same,TGI,[14],> 100 µM
same,TGI,[15],> 100 µM
same,TGI,[16],> 100 µM
same,TGI,[17],> 100 µM
same,TGI,[18],> 100 µM
same,TGI,[19],> 100 µM
same,TGI,[20],> 100 µM
same,TGI,[22],> 100 µM
same,TGI,[23],> 100 µM
same,TGI,[24],> 100 µM
same,TGI,[25],> 100 µM
same,TGI,[26],> 100 µM
same,TGI,[27],> 100 µM
same,TGI,[28],> 100 µM
same,TGI,[29],> 100 µM
same,TGI,[30],> 100 µM
same,TGI,[31],> 100 µM
same,TGI,[36],> 100 µM
same,TGI,[37],> 100 µM
same,TGI,[38],> 100 µM
same,TGI,[39],> 100 µM
same,TGI,[40],> 100 µM
same,TGI,[42],> 100 µM
same,TGI,[43],> 100 µM
same,TGI,[44],> 100 µM
same,TGI,[45],> 100 µM
same,TGI,[47],> 100 µM
same,TGI,[48],> 100 µM
same,TGI,[69],> 100 µM
same,TGI,[49],> 100 µM
same,TGI,[50],> 100 µM
same,TGI,[51],> 100 µM
same,TGI,[52],> 100 µM
same,TGI,[53],> 100 µM
same,TGI,[54],> 100 µM
same,TGI,[55],> 100 µM
same,TGI,[56],> 100 µM
same,TGI,[57],> 100 µM
same,TGI,[58],> 100 µM
same,TGI,[59],> 100 µM
same,TGI,[60],> 100 µM
same,TGI,[61],> 100 µM
same,TGI,[63],> 100 µM
same,TGI,[64],> 100 µM
same,TGI,[65],> 100 µM
same,TGI,[66],> 100 µM
same,TGI,[67],> 100 µM
